These results are taken from patent US8263597B2, “Indazole compounds as CCR1 receptor antagonists” (Boehringer Ingelheim International GmbH, priority 2008, dated 2012).

One may read the IC50 as the point on the concentration scale where inhibition reaches its midpoint.

The first test addresses T1, CCR1 (Homo sapiens, UniProt P32246).
T1 sequence (P32246 1-355): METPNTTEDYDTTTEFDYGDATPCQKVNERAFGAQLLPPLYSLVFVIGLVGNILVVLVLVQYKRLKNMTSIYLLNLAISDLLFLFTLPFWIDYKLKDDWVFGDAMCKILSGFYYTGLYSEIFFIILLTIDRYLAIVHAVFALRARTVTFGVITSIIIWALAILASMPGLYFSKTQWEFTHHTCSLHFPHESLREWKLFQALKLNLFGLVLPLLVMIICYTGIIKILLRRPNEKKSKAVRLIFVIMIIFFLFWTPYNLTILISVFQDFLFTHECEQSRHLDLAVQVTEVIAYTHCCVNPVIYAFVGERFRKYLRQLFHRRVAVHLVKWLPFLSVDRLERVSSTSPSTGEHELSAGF
The experiment in a line: Calcium flux in response to MIP-1 alpha in CCR1-transfected cells, Method B (Calcium 4 dye, […] FDSS6000). The format is cell-based. To be noted: cells stably expressing recombinant CCR1 and G-alpha-16; MIP-1 alpha at EC80; 30 minutes at 37 C then 30 minutes at room temperature. The method, then: (§1) Compounds are assessed for the ability to block the interaction of CCR1 and its ligand in a functional cellular assay measuring calcium flux in response to MIP-1α in CCR1-transfected cells.
Method B: Non-adherent cells purchased from Chemicon Corporation (HTS005C), stably expressing recombinant CCR1 and G-alpha-16 are grown in RPMI 1640 medium (Mediatech 10-080-CM) supplemented with 10% FBS, 0.4 mg/mL Geneticin and penicillin/streptomycin. On the day of the assay, the cells are loaded with Calcium 4 dye (Molecular Devices R7448) with Probenecid (Invitrogen P346400) at 8E5 cells/mL for 1 hour at room temperature. After 1 hour, they are seeded in a 384-well tissue culture-treated plate at a density of 20,000 cells/well. Appropriately diluted test compound is added to the well to achieve a top concentration of 3,000 nM (diluted 4-fold with 10 doses total). The final concentration of DMSO is 1%. The buffer is HBSS (Invitrogen 14025) with 20 mM HEPES at pH 7.4. The cells incubate 30 minutes at 37 C and then 30 minutes at room temperature. The plates are transferred to the […] FDSS6000 where MIP-1 alpha in 1% BSA is added at the EC80 final concentration. All plates must be read within 4 hours of the start of dye-loading. Wells +/−MIP-1alpha containing diluted DMSO instead of compound serve as the controls. Data are analyzed using Activity Base software.
On the technique in general: A change in cytosolic calcium serves as a functional read-out for many receptors and channels.
Take `CC[C@H](NC(=O)c1cccc2c1cnn2-c1ccc(F)cc1)c1ccc(S(C)(=O)=O)nc1` [1-(4-Fluoro-phenyl)-1H-indazole-4-carboxylic acid [(S)-1-(6-methanesulfonyl-pyridin-3-yl)-propyl]-amide]: the IC50 worked out at 2 nM.

A further test addresses T1, CCR1. The experiment in a line: Calcium flux in response to MIP-1 alpha in CCR1-transfected cells, Method A (Fluo-4 NW, FLIPR TETRA). To be noted: cells stably expressing recombinant CCR1 and G-alpha-16; MIP-1 alpha at EC80; 1 hour incubation at room temperature. The format is cell-based. The method, then: as §1
On the day of the assay, the cells are transferred to a beaker and dye-loaded in bulk using a Fluo-4 NW Calcium Assay Kit with probenecid (Invitrogen F36205) at 0.8E6 cells/mL for 1 hour at room temperature. After 1 hour, they are seeded in a 384-well tissue culture-treated plate at a density of 20,000 cells/well. Appropriately diluted test compound is added to the well to achieve a top concentration of 3,000 nM (diluted 3-fold with 10 doses total). The final concentration of DMSO is 1%. […] The cells are allowed to incubate 1 hour in the dark at room temperature. The plates are transferred to the FLIPR TETRA where MIP-1 alpha in 1% BSA is added at the EC80 final concentration. Wells +/−MIP-1 alpha containing diluted DMSO instead of compound serve as the controls.
Regarding `CS(=O)(=O)c1ccc(CNC(=O)c2cccc3c2cnn3-c2ccc(F)cc2)c(Cl)c1` [1-(4-Fluoro-phenyl)-1H-indazole-4-carboxylic acid 2-chloro-4-methanesulfonyl-benzylamide], the IC50 was 6.7 nM.
Regarding `CNS(=O)(=O)c1ccc(CNC(=O)c2cccc3c2cnn3-c2ccc(F)cc2)c(Cl)c1` [1-(4-Fluoro-phenyl)-1H-indazole-4-carboxylic acid 2-chloro-4-methylsulfamoyl-benzylamide], the half-inhibitory concentration (IC50) was found to be 4 nM.
`CNS(=O)(=O)c1ccc(CNC(=O)c2cccc3c2cnn3-c2ccc(F)cc2)c(F)c1` [1-(4-Fluoro-phenyl)-1H-indazole-4-carboxylic acid 2-fluoro-4-methylsulfamoyl-benzylamide]: the IC50 stood at 5.4 nM.
Same read-out and setting: the result for `COc1cc(CNC(=O)c2cccc3c2cnn3-c2ccc(F)cc2)cc(OC)c1` [1-(4-Fluoro-phenyl)-1H-indazole-4-carboxylic acid 3,5-dimethoxy-benzylamide] reads 25 nM; that for `O=C(NCc1cccc(Br)c1)c1cccc2c1cnn2-c1ccc(F)cc1` [1-(4-Fluoro-phenyl)-1H-indazole-4-carboxylic acid 3-bromo-benzylamide], 76 nM.
In the case of `CC(=O)NCCNS(=O)(=O)c1ccc(CNC(=O)c2cccc3c2cnn3-c2ccc(F)cc2)cc1` [1-(4-Fluoro-phenyl)-1H-indazole-4-carboxylic acid 4-(2-acetylamino-ethylsulfamoyl)-benzylamide], the IC50 was found to be 110 nM.
Still for that read-out and setting: the result for `O=C(NCc1ccc(S(=O)(=O)NCCO)cc1)c1cccc2c1cnn2-c1ccc(F)cc1` [1-(4-Fluoro-phenyl)-1H-indazole-4-carboxylic acid 4-(2-hydroxy-ethylsulfamoyl)-benzylamide] reads 9.2 nM.
On to `COCCNS(=O)(=O)c1ccc(CNC(=O)c2cccc3c2cnn3-c2ccc(F)cc2)cc1` [1-(4-Fluoro-phenyl)-1H-indazole-4-carboxylic acid 4-(2-methoxy-ethylsulfamoyl)-benzylamide], for which the IC50 was determined as 10 nM.
For the compound `CN(C)C1CCN(S(=O)(=O)c2ccc(CNC(=O)c3cccc4c3cnn4-c3ccc(F)cc3)cc2)CC1` [1-(4-Fluoro-phenyl)-1H-indazole-4-carboxylic acid 4-(4-dimethylamino-piperidine-1-sulfonyl)-benzylamide], the half-maximal inhibitory concentration (IC50) amounted to 23 nM.
With `CC(C)NS(=O)(=O)Cc1ccc(CNC(=O)c2cccc3c2cnn3-c2ccc(F)cc2)cc1` [1-(4-Fluoro-phenyl)-1H-indazole-4-carboxylic acid 4-(isopropylsulfamoyl-methyl)-benzylamide], the half-maximal inhibitory concentration (IC50) is 55 nM.
As for `O=C(NCc1ccc(S(=O)(=O)N2CCOCC2)cc1)c1cccc2c1cnn2-c1ccc(F)cc1` [1-(4-Fluoro-phenyl)-1H-indazole-4-carboxylic acid 4-(morpholine-4-sulfonyl)-benzylamide], the IC50 turned out to be 14 nM.
Same read-out and setting: with `O=C(NCc1ccc(S(=O)(=O)NC2CCOCC2)cc1)c1cccc2c1cnn2-c1ccc(F)cc1` [1-(4-Fluoro-phenyl)-1H-indazole-4-carboxylic acid 4-(tetrahydro-pyran-4-ylsulfamoyl)-benzylamide] the figure was 20 nM.
With `CN1CCC(N(C)S(=O)(=O)c2ccc(CNC(=O)c3cccc4c3cnn4-c3ccc(F)cc3)cc2)CC1` [1-(4-Fluoro-phenyl)-1H-indazole-4-carboxylic acid 4-[methyl-(1-methyl-piperidin-4-yl)-sulfamoyl]-benzylamide], the 50% inhibitory concentration (IC50) was determined as 44 nM.
On the same count and under the same terms, with `N#Cc1cc(CNC(=O)c2cccc3c2cnn3-c2ccc(F)cc2)ccn1` [1-(4-Fluoro-phenyl)-1H-indazole-4-carboxylic acid (2-cyano-pyridin-4-ylmethyl)-amide] the figure was 120 nM.
Take `COc1cc(CNC(=O)c2cccc3c2cnn3-c2ccc(F)cc2)ccn1` [1-(4-Fluoro-phenyl)-1H-indazole-4-carboxylic acid (2-methoxy-pyridin-4-ylmethyl)-amide]: the IC50 amounted to 22 nM.
`CC(NC(=O)c1cccc2c1cnn2-c1ccc(F)cc1)c1cccc(C(F)(F)F)c1` (centres unmarked) [1-(4-Fluoro-phenyl)-1H-indazole-4-carboxylic acid [1-(3-trifluoromethyl-phenyl)-ethyl]-amide]: the IC50 worked out at 14 nM.
As to `CCC[C@H](NC(=O)c1cccc2c1cnn2-c1ccc(F)cc1)c1cccc(Br)c1` [1-(4-Fluoro-phenyl)-1H-indazole-4-carboxylic acid [(S)-1-(3-bromo-phenyl)-butyl]-amide], the IC50 was determined as 19 nM.
Turning to `CNS(=O)(=O)c1ccc(CNC(=O)c2cc(S(C)(=O)=O)cc3c2cnn3-c2ccc(F)cc2)cc1` [1-(4-Fluoro-phenyl)-6-methanesulfonyl-1H-indazole-4-carboxylic acid 4-methylsulfamoyl-benzylamide], the IC50 is 28 nM.
As to `CNS(=O)(=O)c1ccc(CNC(=O)c2cc(C)cc3c2cnn3-c2ccc(F)cc2)cc1` [1-(4-Fluoro-phenyl)-6-methyl-1H-indazole-4-carboxylic acid 4-methylsulfamoyl-benzylamide], the IC50 was determined as 20 nM.
Consider `CS(=O)(=O)c1cccc(CNC(=O)c2cc(C#N)cc3c2cnn3-c2ccc(F)cc2)c1` [6-Cyano-1-(4-fluoro-phenyl)-1H-indazole-4-carboxylic acid 3-methanesulfonyl-benzylamide], for which the IC50 came to 2 nM.
Turning to `CN1CCC(NS(=O)(=O)c2ccc(CNC(=O)c3cc(C#N)cc4c3cnn4-c3ccc(F)cc3)cc2)CC1` [6-Cyano-1-(4-fluoro-phenyl)-1H-indazole-4-carboxylic acid 4-(1-methyl-piperidin-4-ylsulfamoyl)-benzylamide], the half-inhibitory concentration (IC50) was 18 nM.
With `CN1CCN(S(=O)(=O)c2ccc(CNC(=O)c3cc(C#N)cc4c3cnn4-c3ccc(F)cc3)cc2)CC1` [6-Cyano-1-(4-fluoro-phenyl)-1H-indazole-4-carboxylic acid 4-(4-methyl-piperazine-1-sulfonyl)-benzylamide], the half-inhibitory concentration (IC50) was found to be 1.5 nM.
As to `CN1CCC(N(C)S(=O)(=O)c2ccc(CNC(=O)c3cc(C#N)cc4c3cnn4-c3ccc(F)cc3)cc2)CC1` [6-Cyano-1-(4-fluoro-phenyl)-1H-indazole-4-carboxylic acid 4-[methyl-(1-methyl-piperidin-4-yl)-sulfamoyl]-benzylamide], the half-maximal inhibitory concentration (IC50) worked out at 5.1 nM.
Consider `CNS(=O)(=O)c1ccc(CNC(=O)c2cc(C#N)cc3c2cnn3-c2ccc(F)cc2)cc1` [6-Cyano-1-(4-fluoro-phenyl)-1H-indazole-4-carboxylic acid 4-methylsulfamoyl-benzylamide], for which the IC50 is 0.3 nM.
Turning to `N#Cc1cc(C(=O)NCc2ccc(Br)nc2)c2cnn(-c3ccc(F)cc3)c2c1` [6-Cyano-1-(4-fluoro-phenyl)-1H-indazole-4-carboxylic acid (6-bromo-pyridin-3-ylmethyl)-amide], the IC50 was 21 nM.
Regarding `CS(=O)(=O)c1ccc(CNC(=O)c2cc(C#N)cc3c2cnn3-c2ccc(F)cc2)cn1` [6-Cyano-1-(4-fluoro-phenyl)-1H-indazole-4-carboxylic acid (6-methanesulfonyl-pyridin-3-ylmethyl)-amide], the concentration for half-maximal inhibition (IC50) was 7.1 nM.
On to `CS(=O)(=O)Nc1ccc(CNC(=O)c2cc(C#N)cc3c2cnn3-c2ccc(F)cc2)cn1` [6-Cyano-1-(4-fluoro-phenyl)-1H-indazole-4-carboxylic acid (6-methanesulfonylamino-pyridin-3-ylmethyl)-amide], for which the IC50 is 4.4 nM.
`CCOC(=O)COc1cc(CNC(=O)c2cccc3c2cnn3-c2ccc(F)cc2)ccn1` [[4-({[1-(4-Fluoro-phenyl)-1H-indazole-4-carbonyl]-amino}-methyl)-pyridin-2-yloxy]-acetic acid ethyl ester]: the concentration for half-maximal inhibition (IC50) was determined as 140 nM.
